Measurements taken from the supplement of paper PMC10307832.

How the values were obtained:
Assay in all cases: relative viability (nuclei count vs DMSO), 5 days (fraction); higher = more cells survive
Motesanib + Trametinib = compound: CC1(C)CNc2cc(NC(=O)c3cccnc3NCc3ccncc3)ccc21 [Motesanib] + CC(=O)Nc1cccc(-n2c(=O)n(C3CC3)c(=O)c3c(Nc4ccc(I)cc4F)n(C)c(=O)c(C)c32)c1 [Trametinib] (partner 0.02 µM)
Outline: (§1)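 Values are medians from duplicate plates. Each reflects relative viability, defined as the nuclei count of treated wells over that of vehicle wells. Lung cancer cell lines in 1536-well plates were pin-tool dosed one day after seeding with one drug alone or with a fixed anchor-drug dose plus five library-drug doses (not always all listed) in √10 steps, then fixed, stained and imaged at 4× after 5 days.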

Motesanib + Navitoclax = compound: CC1(C)CNc2cc(NC(=O)c3cccnc3NCc3ccncc3)ccc21 [Motesanib] + CC1(C)CCC(c2ccc(Cl)cc2)=C(CN2CCN(c3ccc(C(=O)NS(=O)(=O)c4ccc(N[C@H](CCN5CCOCC5)CSc5ccccc5)c(S(=O)(=O)C(F)(F)F)c4)cc3)CC2)C1 [Navitoclax] (partner 0.5 µM)
Outline: as §1

Motesanib + Linsitinib = compound: CC1(C)CNc2cc(NC(=O)c3cccnc3NCc3ccncc3)ccc21 [Motesanib] + C[C@]1(O)C[C@@H](c2nc(-c3ccc4ccc(-c5ccccc5)nc4c3)c3c(N)nccn32)C1 [Linsitinib] (partner 1 µM)
Outline: as §1

Motesanib + Palbociclib = compound: CC1(C)CNc2cc(NC(=O)c3cccnc3NCc3ccncc3)ccc21 [Motesanib] + CC(=O)c1c(C)c2cnc(Nc3ccc(N4CCNCC4)cn3)nc2n(C2CCCC2)c1=O [Palbociclib] (partner 0.5 µM)
Outline: as §1

Cell Line	relative viability (Motesanib + Trametinib; first compound 0.01 µM)	relative viability (Motesanib + Trametinib; first compound 0.03162 µM)	relative viability (Motesanib + Trametinib; first compound 0.1 µM)	relative viability (Motesanib + Trametinib; first compound 0.3162 µM)	relative viability (Motesanib + Trametinib; first compound 1 µM)	relative viability (Motesanib + Navitoclax; first compound 0.01 µM)	relative viability (Motesanib + Navitoclax; first compound 0.03162 µM)	relative viability (Motesanib + Navitoclax; first compound 0.1 µM)	relative viability (Motesanib + Navitoclax; first compound 0.3162 µM)	relative viability (Motesanib + Navitoclax; first compound 1 µM)	relative viability (Motesanib + Linsitinib; first compound 0.01 µM)	relative viability (Motesanib + Linsitinib; first compound 0.03162 µM)	relative viability (Motesanib + Linsitinib; first compound 0.1 µM)	relative viability (Motesanib + Linsitinib; first compound 0.3162 µM)	relative viability (Motesanib + Linsitinib; first compound 1 µM)	relative viability (Motesanib + Palbociclib; first compound 0.01 µM)	relative viability (Motesanib + Palbociclib; first compound 0.03162 µM)	relative viability (Motesanib + Palbociclib; first compound 0.1 µM)	relative viability (Motesanib + Palbociclib; first compound 0.3162 µM)	relative viability (Motesanib + Palbociclib; first compound 1 µM)
CAL-12T	0.324	0.316	0.33	0.402	0.419	1.34	1.47	1.3	1.24	1.28	0.81	0.801	0.876	0.882	0.822	0.418	0.524	0.347	0.415	0.563
COR-L23	0.352	0.654	0.602	0.708	0.74	1.01	0.936	1.08	1.06	0.972	0.943	0.862	0.92	1.09	0.905	0.297	0.26	0.272	0.273	0.32
COR-L 105	0.451	0.383	0.41	0.422	0.448	1.01	0.805	0.853	0.818	0.851	0.872	1.22	1.04	0.889	1.17	0.393	0.45	0.401	0.438	0.448
EKVX	0.303	0.414	0.344	0.459	0.522	0.88	1.11	1.06	0.989	0.961	0.939	0.98	1.06	1.12	1.07	0.415	0.347	0.378	0.36	0.398
EMC-BAC-2	0.756	0.909	0.861	0.797	0.948	1.18	1.15	1.22	1.19	1.13	0.828	0.805	0.827	0.817	0.86	0.513	0.511	0.526	0.526	0.534
EPLC-272H	0.287	0.289	0.286	0.299	0.341	1.16	0.905	1.3	1.04	1.26	1.23	1.26	1.26	1.24	1.38	0.284	0.3	0.344	0.36	0.381
H3255	0.533	0.681	0.684	0.626	0.67	0.507	0.603	0.544	0.506	0.529	0.949	1.02	0.913	1.06	0.871	0.308	0.326	0.322	0.348	0.363
HARA	0.649	0.454	0.598	0.918	0.441	1.11	1.18	1.21	1.2	1.22	0.967	0.909	1.02	1.09	1.14	0.281	0.211	0.282	0.253	0.315
HCC-15	0.377	0.335	0.364	0.406	0.376	0.69	0.718	0.713	0.773	0.748	0.928	0.801	0.922	0.992	0.926	0.777	0.668	0.695	0.768	0.702
HCC-44	1.01	1.06	1.05	1.12	1.19	0.986	0.96	0.994	1.04	0.997	0.7	0.653	0.694	0.696	0.6	0.945	0.944	1.02	0.972	0.942
HCC-78	0.653	0.671	0.701	–	0.735	0.817	0.862	0.825	0.818	0.947	0.498	0.481	0.541	0.705	0.584	0.442	0.467	0.478	0.511	0.56
HCC-366	0.396	0.302	0.282	0.385	0.334	0.917	0.975	0.972	0.998	1.19	0.639	0.589	0.656	0.666	0.79	0.354	0.36	0.367	0.452	0.435
HCC-827	0.442	0.593	0.505	0.541	0.623	1.11	1.01	1.07	1.05	1.02	0.983	0.916	1	1.05	0.951	0.569	0.437	0.459	0.546	0.439
HOP-62	0.366	0.379	0.37	0.405	0.424	1.12	0.939	1.07	1.15	1.26	0.732	0.956	0.806	1.05	1.03	0.451	0.43	0.499	0.51	0.494
LC-2-ad	0.9	0.903	0.865	0.871	0.84	0.405	0.381	0.522	0.402	0.4	0.828	0.834	0.858	0.881	0.766	0.487	0.514	0.556	0.49	0.5
LCLC-97TM1	0.152	0.202	0.198	0.226	0.195	0.406	0.519	0.32	0.375	0.657	0.171	0.164	0.2	0.182	0.2	0.188	0.216	0.229	0.32	0.261

Cell Line	relative viability (Motesanib + Trametinib; first compound 0.01 µM)	relative viability (Motesanib + Trametinib; first compound 0.03162 µM)	relative viability (Motesanib + Trametinib; first compound 0.1 µM)	relative viability (Motesanib + Trametinib; first compound 0.3162 µM)	relative viability (Motesanib + Trametinib; first compound 1 µM)	relative viability (Motesanib + Navitoclax; first compound 0.01 µM)	relative viability (Motesanib + Navitoclax; first compound 0.03162 µM)	relative viability (Motesanib + Navitoclax; first compound 0.1 µM)	relative viability (Motesanib + Navitoclax; first compound 0.3162 µM)	relative viability (Motesanib + Navitoclax; first compound 1 µM)	relative viability (Motesanib + Linsitinib; first compound 0.01 µM)	relative viability (Motesanib + Linsitinib; first compound 0.03162 µM)	relative viability (Motesanib + Linsitinib; first compound 0.1 µM)	relative viability (Motesanib + Linsitinib; first compound 0.3162 µM)	relative viability (Motesanib + Linsitinib; first compound 1 µM)	relative viability (Motesanib + Palbociclib; first compound 0.01 µM)	relative viability (Motesanib + Palbociclib; first compound 0.03162 µM)	relative viability (Motesanib + Palbociclib; first compound 0.1 µM)	relative viability (Motesanib + Palbociclib; first compound 0.3162 µM)	relative viability (Motesanib + Palbociclib; first compound 1 µM)
LK-2	0.662	0.71	0.696	0.87	0.811	0.915	0.877	0.811	0.911	0.894	0.426	0.44	0.369	0.623	0.582	0.784	0.659	0.537	0.667	0.708
LOU-NH91	0.789	0.767	0.819	0.802	0.781	0.774	0.638	0.741	0.703	0.769	1.05	0.996	0.942	0.91	0.996	0.536	0.463	0.539	0.58	0.553
LU99A	0.302	0.596	0.548	0.539	0.583	0.82	0.849	0.75	0.798	0.835	0.496	0.565	0.537	0.511	0.594	0.412	0.489	0.435	0.334	0.417
LXF-289	0.624	0.684	0.689	0.728	0.704	0.923	0.957	0.931	0.955	0.951	0.958	0.974	1.02	1	1.02	0.659	0.6	0.563	0.656	0.585
NCI-H23	0.392	0.341	0.37	0.432	0.382	0.901	0.552	–	0.779	0.826	0.582	0.609	–	0.56	0.527	0.482	0.491	0.456	0.604	0.467
NCI-H322M	0.471	0.558	0.554	0.527	0.545	1.19	1.32	1.33	1.2	1.23	1.03	0.91	0.913	0.92	0.98	0.486	0.439	0.48	0.508	0.466
NCI-H441	0.41	0.435	0.463	0.577	0.472	0.706	0.729	0.627	0.641	0.796	0.519	0.545	0.626	0.603	0.875	0.237	0.214	0.268	0.2	0.23
NCI-H460	0.139	0.104	0.209	0.179	0.142	1.15	1.05	1.09	1.14	1.24	0.836	0.817	0.726	0.899	0.744	0.278	0.162	0.142	0.197	0.137
NCI-H520	0.516	0.561	0.68	0.655	0.627	1.12	0.982	1.1	1.03	1.04	0.86	1.02	0.911	1.18	0.923	0.209	0.215	0.235	0.234	0.225
NCI-H647	0.452	0.533	0.42	0.427	0.491	1.26	1.49	1.28	1.19	1.18	1.17	1.12	1.38	1.14	1.14	0.428	0.262	0.395	0.423	0.466
NCI-H727	0.381	0.363	0.385	0.379	0.354	0.519	0.349	0.321	0.52	0.446	0.3	0.329	0.304	0.292	0.15	0.631	0.652	0.687	0.639	0.606
NCI-H838	0.494	0.568	0.507	0.544	0.529	1.25	1.21	1.09	1.25	1.14	1.05	1.09	1.06	1.08	1.07	0.204	0.203	0.213	0.198	0.241
NCI-H1355	0.398	0.473	0.463	0.4	0.459	0.994	0.946	0.882	1.06	0.957	0.792	0.75	0.801	0.865	0.834	0.429	0.413	0.397	0.392	0.38
NCI-H1395	0.98	0.977	1.06	1.04	1.19	1.22	1.06	1.27	1.17	1.27	0.992	1.03	1	1.11	1.35	0.682	0.602	0.623	0.661	0.661
NCI-H1437	0.587	0.471	0.529	0.492	0.518	1.09	1.05	1.07	1.11	1.13	0.972	1.08	1.01	1.01	1.13	0.271	0.266	0.295	0.302	0.278
NCI-H1651	0.817	0.796	0.777	0.849	0.847	1.08	0.946	1.09	0.994	1	0.917	0.912	0.966	0.944	1.08	0.528	0.523	0.538	0.508	0.513
